According to ChEMBL document CHEMBL1821583 (Bioorg Med Chem Lett, 2011):

Columns and labels:
Protein smoothened [1] = biological target: T1, Protein smoothened (Homo sapiens, UniProt Q99835); assay: Displacement of BODIPY-cyclopamine from Smo expressed in COS-1 cells after 4 to 6 hrs by Flow Cytometry analysis in presence of 2% fetal calf serum; format: cell-based
Protein smoothened [2] = biological target: T1, Protein smoothened; assay: Displacement of BODIPY-cyclopamine from Smo expressed in COS-1 cells after 4 to 6 hrs by Flow Cytometry analysis in presence of 20% normal human serum; format: cell-based
[3] = Inhibition of hedgehog signaling pathway in mouse Shh Light2 cells by Gli-dependent reporter gene assay; format: functional, cell-based; conditions: Shh Light II
[4] = Intrinsic clearance in human liver microsomes assessed per mg of protein; format: ADME, Microsome
[5] = biological target: Voltage-gated inwardly rectifying potassium channel KCNH2 (Homo sapiens, UniProt Q12809)
[6] = Intrinsic clearance in rat liver microsomes assessed per mg of protein; format: ADME, Microsome
[7] = Clearance in iv dosed rat; format: ADME, organism-based; conditions: in vivo
[8] = Lipophilicity, log D of the compound; format: physicochemical; conditions: octanol/water

Chain of Voltage-gated inwardly rectifying potassium channel KCNH2 (Q12809 whole entry): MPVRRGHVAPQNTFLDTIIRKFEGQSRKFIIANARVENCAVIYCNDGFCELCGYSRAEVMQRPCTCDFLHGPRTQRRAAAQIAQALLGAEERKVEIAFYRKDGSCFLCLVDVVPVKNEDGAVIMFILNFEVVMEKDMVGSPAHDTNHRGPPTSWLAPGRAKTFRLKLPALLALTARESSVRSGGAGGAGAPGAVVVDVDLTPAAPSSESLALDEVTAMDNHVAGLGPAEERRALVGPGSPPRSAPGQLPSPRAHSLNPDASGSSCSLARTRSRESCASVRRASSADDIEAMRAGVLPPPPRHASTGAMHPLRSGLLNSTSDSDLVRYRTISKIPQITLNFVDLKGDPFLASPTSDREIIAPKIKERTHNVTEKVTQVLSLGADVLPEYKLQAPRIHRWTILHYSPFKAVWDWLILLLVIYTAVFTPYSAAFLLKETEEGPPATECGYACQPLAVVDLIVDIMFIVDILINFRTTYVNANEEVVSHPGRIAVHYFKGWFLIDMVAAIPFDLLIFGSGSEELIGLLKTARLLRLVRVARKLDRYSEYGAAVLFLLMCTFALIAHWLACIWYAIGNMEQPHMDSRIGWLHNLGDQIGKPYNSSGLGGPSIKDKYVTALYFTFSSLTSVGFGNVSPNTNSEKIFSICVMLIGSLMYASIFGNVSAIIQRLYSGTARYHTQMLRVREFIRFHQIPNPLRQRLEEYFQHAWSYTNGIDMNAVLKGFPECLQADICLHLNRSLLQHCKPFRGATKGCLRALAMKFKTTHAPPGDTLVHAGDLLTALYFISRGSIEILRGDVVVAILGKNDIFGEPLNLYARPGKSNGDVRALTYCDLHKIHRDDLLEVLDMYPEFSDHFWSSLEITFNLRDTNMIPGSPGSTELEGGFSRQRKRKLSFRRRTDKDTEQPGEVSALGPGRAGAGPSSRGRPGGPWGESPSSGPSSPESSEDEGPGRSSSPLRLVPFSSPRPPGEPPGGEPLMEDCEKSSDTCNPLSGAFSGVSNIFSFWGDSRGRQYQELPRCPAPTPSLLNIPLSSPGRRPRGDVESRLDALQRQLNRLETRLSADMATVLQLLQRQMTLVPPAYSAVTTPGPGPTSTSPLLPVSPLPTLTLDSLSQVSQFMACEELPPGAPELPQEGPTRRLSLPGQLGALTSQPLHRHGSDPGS
T1 sequence (Q99835 whole entry): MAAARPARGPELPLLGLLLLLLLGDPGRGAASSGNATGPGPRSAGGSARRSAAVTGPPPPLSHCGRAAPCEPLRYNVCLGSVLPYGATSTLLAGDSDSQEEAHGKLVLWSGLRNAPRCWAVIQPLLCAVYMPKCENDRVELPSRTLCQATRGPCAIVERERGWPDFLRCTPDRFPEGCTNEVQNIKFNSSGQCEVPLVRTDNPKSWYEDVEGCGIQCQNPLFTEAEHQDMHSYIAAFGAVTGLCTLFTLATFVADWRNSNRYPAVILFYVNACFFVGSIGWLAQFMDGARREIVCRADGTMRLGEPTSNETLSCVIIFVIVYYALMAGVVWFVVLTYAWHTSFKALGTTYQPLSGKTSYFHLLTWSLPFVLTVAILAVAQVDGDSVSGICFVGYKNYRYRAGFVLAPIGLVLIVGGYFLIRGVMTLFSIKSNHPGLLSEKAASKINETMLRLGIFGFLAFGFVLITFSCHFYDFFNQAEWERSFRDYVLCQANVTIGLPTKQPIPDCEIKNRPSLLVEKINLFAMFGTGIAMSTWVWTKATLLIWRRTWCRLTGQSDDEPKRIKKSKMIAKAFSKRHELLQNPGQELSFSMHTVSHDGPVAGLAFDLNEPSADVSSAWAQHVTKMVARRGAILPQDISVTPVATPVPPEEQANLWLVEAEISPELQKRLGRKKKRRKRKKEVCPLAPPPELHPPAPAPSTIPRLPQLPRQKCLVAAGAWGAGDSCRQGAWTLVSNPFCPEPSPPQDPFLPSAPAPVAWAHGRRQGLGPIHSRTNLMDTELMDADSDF

Row | SMILES | IC50 (Protein smoothened [1]) [nM] | IC50 (Protein smoothened [2]) [nM] | IC50 [3] [nM] | microsomal CLint [4] [µL/min/mg] | microsomal CLint [6] [µL/min/mg] | clearance [7] [mL/min/kg] | logD [8] | IC50 [5] [nM]
1 | O=C(NCC(c1cccnc1)N1CCOCC1)N1CCC(c2nc(-c3ccc4ccccc4n3)no2)CC1 (stereo not given) | 2600 | 9900 | 4200 |  |  |  |  | 
2 | CC(=O)NC1(CNC(=O)N2CCC(c3nc(-c4ccc5ccccc5n4)no3)CC2)CCCC1 | 320 | 13000 | 190 |  |  |  |  | 
3 | O=C(NCC1(c2ccccc2)CCCC1)N1CCC(c2nc(-c3ccc4ccccc4n3)no2)CC1 | 810 | 4500 | 410 |  |  |  |  | 
4 | CCN(CC)C1(CNC(=O)N2CCC(c3nc(-c4ccc5ccccc5n4)no3)CC2)CCCC1 | 55 | 46 | 120 | 98 | > 200 |  |  | 9400
5 | CCN1CCCCC1CNC(=O)N1CCC(c2nc(-c3ccc4ccccc4n3)no2)CC1 (stereo not given) | 64 | 80 | 130 |  |  |  |  | 
6 | O=C(NCC1(N2CCCCC2)CCCC1)N1CCN(c2nc(-c3ccc4ccccc4n3)no2)CC1 | 8 | 10 | 40 |  |  | > 100 |  | 
7 | O=C(NCC(c1ccccc1)N1CCCCC1)N1CCC(c2nc(-c3ccc4ccccc4n3)no2)CC1 (stereo not given) | 210 | 330 | 130 |  |  |  |  | 
8 | CC(C)N1CCCC1CNC(=O)N1CCC(c2nc(-c3ccc4ccccc4n3)no2)CC1 (stereo not given) | 340 | 650 | 850 | 10 | 19 | > 100 |  | 
9 | CCN1CCOCC1CNC(=O)N1CCC(c2nc(-c3ccc4ccccc4n3)no2)CC1 (stereo not given) | 300 | 390 | 230 |  |  |  |  | 
10 | O=C(NC1CCC(F)(F)CC1)N1CCN(c2nc(-c3ccc4ccccc4n3)no2)CC1 | 13 | 13 | 5 |  |  |  |  | 
11 | O=C(NCC(c1ccccn1)N1CCOCC1)N1CCC(c2nc(-c3ccc4ccccc4n3)no2)CC1 (stereo not given) | 2700 | 4200 | 790 |  |  |  |  | 
12 | CC(C)NC1(CNC(=O)N2CCC(c3nc(-c4ccc5ccccc5n4)no3)CC2)CCCC1 | 16 | 58 | 25 |  |  |  |  | 
13 | O=C(NCC(c1ccncc1)N1CCOCC1)N1CCC(c2nc(-c3ccc4ccccc4n3)no2)CC1 (stereo not given) | 8600 | 17000 | 8200 |  |  |  |  | 
14 | O=C(NCC1NCCc2ccccc21)N1CCC(c2nc(-c3ccc4ccccc4n3)no2)CC1 (stereo not given) | 380 | 600 | 960 |  |  |  |  | 
15 | CN1CCc2ccccc2C1CNC(=O)N1CCC(c2nc(-c3ccc4ccccc4n3)no2)CC1 (stereo not given) | 360 | 470 | 380 |  |  |  |  | 
16 | CCN1CCCC1CNC(=O)N1CCC(c2nc(-c3ccc4ccccc4n3)no2)CC1 (stereo not given) | 290 | 490 |  |  |  |  |  | 
17 | CC(C)(C)OC(=O)NC1(CNC(=O)N2CCC(c3nc(-c4ccc5ccccc5n4)no3)CC2)CCCC1 | 2000 | 14000 | 2000 |  |  |  |  | 

Now from value to molecule, other results behind:

Row | IC50 (Protein smoothened [1]) [nM] | IC50 (Protein smoothened [2]) [nM] | IC50 [3] [nM] | microsomal CLint [4] [µL/min/mg] | microsomal CLint [6] [µL/min/mg] | clearance [7] [mL/min/kg] | logD [8] | SMILES | IC50 [5] [nM]
18 | 21 | 19 | 23 |  |  |  |  | Cn1c(-c2noc(C3CCN(C(=O)NCC4(N5CCCCC5)CCCC4)CC3)n2)nc2ccccc21 | 
19 | 210 | 530 | 260 |  |  |  |  | COC1CCN(C2(CNC(=O)N3CCC(c4nc(-c5ccc6ccccc6n5)no4)CC3)CCCC2)CC1 | 
20 | 4900 | 3400 | 2500 |  |  |  |  | O=C(NCCN1CCOCC1)N1CCC(c2nc(-c3ccc4ccccc4n3)no2)CC1 | 
21 | 30 | 100 | 46 | > 400 | > 500 |  | 2.62 | O=C(NCC1(N2CCOCC2)CCCC1)N1CCC(c2nc(-c3ccc4ccccc4n3)no2)CC1 | 10000
22 | 910 | 6900 | 600 |  |  |  |  | O=C(NCC1(CO)CCCC1)N1CCC(c2nc(-c3ccc4ccccc4n3)no2)CC1 | 
23 | 630 | 790 | 350 |  |  |  |  | NC1(CNC(=O)N2CCC(c3nc(-c4ccc5ccccc5n4)no3)CC2)CCCC1 | 
24 | 32 | 42 | 69 | 52 | 100 |  |  | O=C(NCC1(N2CCCC2)CCCC1)N1CCC(c2nc(-c3ccc4ccccc4n3)no2)CC1 | 7100
25 | 510 | 400 | 450 |  |  |  |  | CN1CCN(C2(CNC(=O)N3CCC(c4nc(-c5ccc6ccccc6n5)no4)CC3)CCCC2)CC1 | 
26 | 300 | 370 | 310 | 40 | 27 |  |  | CN(C)C1(CNC(=O)N2CCC(c3nc(-c4ccc5ccccc5n4)no3)CC2)CCCC1 | 38000
27 | 10 | 15 | 16 |  |  |  |  | O=C(NCC1(N2CCOCC2)CCCC1)N1CCN(c2nc(-c3ccc4ccccc4n3)no2)CC1 | 
28 | 17 | 15 | 18 |  |  |  |  | Cn1c(-c2noc(C3CCN(C(=O)NCC4(N5CCOCC5)CCCC4)CC3)n2)nc2ccccc21 | 
29 | 140 | 520 | 430 |  |  |  |  | O=C(NCC1(NC2CCCCC2)CCCC1)N1CCC(c2nc(-c3ccc4ccccc4n3)no2)CC1 | 
30 | 290 | 670 | 450 | 112 | > 300 |  |  | CC(C)(CNC(=O)N1CCC(c2nc(-c3ccc4ccccc4n3)no2)CC1)N1CCOCC1 | 
31 | 180 | 950 | 100 |  |  |  |  | O=C(NCC1(N2CCC(F)(F)CC2)CCCC1)N1CCC(c2nc(-c3ccc4ccccc4n3)no2)CC1 | 
32 | 240 | 480 | 330 |  |  |  |  | O=C(NCC1(N2CCOCC2)CCCCCC1)N1CCC(c2nc(-c3ccc4ccccc4n3)no2)CC1 | 
33 | 5 | 6 | 4 |  |  |  |  | Cn1c(-c2noc(N3CCN(C(=O)NCC4(N5CCCCC5)CCCC4)CC3)n2)nc2ccccc21 | 
34 | 110 | 200 | 90 |  |  |  |  | O=C(NCC1(N2CCC(F)CC2)CCCC1)N1CCC(c2nc(-c3ccc4ccccc4n3)no2)CC1 | 
35 | 23 | 72 | 140 | > 500 | > 500 |  |  | O=C(NCC1(N2CCOCC2)CCCCC1)N1CCC(c2nc(-c3ccc4ccccc4n3)no2)CC1 | 4300
36 | 230 | 7000 |  |  |  |  |  | O=C(NCC1(C(=O)N2CCCCC2)CCCC1)N1CCC(c2nc(-c3ccc4ccccc4n3)no2)CC1 | 
37 | 46 | 91 | 88 | 7 | 51 |  |  | CCNC1(CNC(=O)N2CCC(c3nc(-c4ccc5ccccc5n4)no3)CC2)CCCC1 | 24000
38 | 46 | 51 | 100 | 49 | 160 | > 100 |  | O=C(NCC1(N2CCCCC2)CCCC1)N1CCC(c2nc(-c3ccc4ccccc4n3)no2)CC1 | 
